Experimental data published in ChEMBL document CHEMBL1201862, “PubChem BioAssay data set” (2004).
Activity calls are given as the source filed them.

Legend:
Format in all cases: functional
Protein skinhead-1 = biological target: T1, Protein skinhead-1 (Caenorhabditis elegans, UniProt P34707)
T1 sequence (P34707 whole entry): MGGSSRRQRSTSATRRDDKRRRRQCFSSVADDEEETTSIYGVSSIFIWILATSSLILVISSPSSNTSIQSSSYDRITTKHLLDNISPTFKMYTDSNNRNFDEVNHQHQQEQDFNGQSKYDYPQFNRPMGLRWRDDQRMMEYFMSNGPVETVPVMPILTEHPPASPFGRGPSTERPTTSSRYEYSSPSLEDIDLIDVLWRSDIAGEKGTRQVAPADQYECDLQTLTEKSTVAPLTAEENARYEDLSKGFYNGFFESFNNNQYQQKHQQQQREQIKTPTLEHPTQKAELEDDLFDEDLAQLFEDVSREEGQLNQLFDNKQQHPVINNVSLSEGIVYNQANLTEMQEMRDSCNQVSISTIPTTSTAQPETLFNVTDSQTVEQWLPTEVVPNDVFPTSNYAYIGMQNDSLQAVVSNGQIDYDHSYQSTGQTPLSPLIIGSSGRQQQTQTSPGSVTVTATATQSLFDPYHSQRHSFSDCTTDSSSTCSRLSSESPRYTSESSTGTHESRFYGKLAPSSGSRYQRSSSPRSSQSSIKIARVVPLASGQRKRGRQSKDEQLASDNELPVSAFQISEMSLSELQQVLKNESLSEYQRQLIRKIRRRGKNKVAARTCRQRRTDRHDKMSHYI

[1] = Luminescence Cell-Based Dose Confirmation HTS to Identify Activators of 5'UTR Stem-Loop Driven Alpha-Synuclein mRNA Translation in H4 Neuroglioblastoma Cells. [Related pubchem assays: 1829 (Project Summary), 1814 (Primary HTS)]
[2] = biological target: T2, Sentrin-specific protease 7 (Homo sapiens, UniProt Q9BQF6);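 note: Luminescence-based dose-response confirmation of ultra-high-throughput screening hits, measuring inhibition of SENP7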
T2 sequence (Q9BQF6 whole entry): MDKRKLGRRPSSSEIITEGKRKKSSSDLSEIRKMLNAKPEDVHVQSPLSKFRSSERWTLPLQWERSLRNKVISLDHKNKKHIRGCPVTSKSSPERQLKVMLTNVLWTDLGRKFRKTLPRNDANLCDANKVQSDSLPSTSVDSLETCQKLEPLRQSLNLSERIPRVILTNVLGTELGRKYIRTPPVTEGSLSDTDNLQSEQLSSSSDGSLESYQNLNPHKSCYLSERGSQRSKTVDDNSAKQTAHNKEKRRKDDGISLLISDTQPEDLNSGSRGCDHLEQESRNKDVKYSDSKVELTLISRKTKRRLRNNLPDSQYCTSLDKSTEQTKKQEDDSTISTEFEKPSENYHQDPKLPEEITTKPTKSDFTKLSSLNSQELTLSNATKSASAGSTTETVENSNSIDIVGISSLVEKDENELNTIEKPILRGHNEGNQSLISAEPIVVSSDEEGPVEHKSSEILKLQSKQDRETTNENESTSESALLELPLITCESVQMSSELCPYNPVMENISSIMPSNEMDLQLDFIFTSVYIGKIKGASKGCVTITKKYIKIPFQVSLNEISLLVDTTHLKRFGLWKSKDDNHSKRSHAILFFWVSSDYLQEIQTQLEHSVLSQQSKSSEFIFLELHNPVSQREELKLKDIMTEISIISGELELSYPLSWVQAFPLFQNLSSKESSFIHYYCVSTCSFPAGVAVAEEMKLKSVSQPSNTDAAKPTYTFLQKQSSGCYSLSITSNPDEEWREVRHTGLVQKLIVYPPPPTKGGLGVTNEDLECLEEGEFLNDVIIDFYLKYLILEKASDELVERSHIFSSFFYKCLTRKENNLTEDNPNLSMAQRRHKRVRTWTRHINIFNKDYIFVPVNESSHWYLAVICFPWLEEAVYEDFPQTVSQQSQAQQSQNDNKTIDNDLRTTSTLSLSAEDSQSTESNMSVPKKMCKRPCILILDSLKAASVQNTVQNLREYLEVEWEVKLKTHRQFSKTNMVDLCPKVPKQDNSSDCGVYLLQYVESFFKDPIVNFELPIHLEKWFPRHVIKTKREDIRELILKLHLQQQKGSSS

[3] = biological target: T3, Sentrin-specific protease 8 (Homo sapiens, UniProt Q96LD8);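 note: luminescence read-out of SENP8 inhibition, dose-response confirmation following an ultra-high-throughput screen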
T3 sequence (Q96LD8 whole entry): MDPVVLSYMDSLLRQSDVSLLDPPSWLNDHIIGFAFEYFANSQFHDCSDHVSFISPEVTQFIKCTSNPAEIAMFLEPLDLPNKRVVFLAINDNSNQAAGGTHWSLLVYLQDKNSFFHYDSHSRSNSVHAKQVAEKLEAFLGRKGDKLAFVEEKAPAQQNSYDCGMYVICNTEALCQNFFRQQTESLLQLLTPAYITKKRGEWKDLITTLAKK

Caspase-3 = biological target: T4, Caspase-3 (Homo sapiens, UniProt P42574);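 note: Dose-response selectivity test against caspase-3 for candidate inhibitors of sentrin-specific proteases (SENPs)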
T4 sequence (P42574 whole entry): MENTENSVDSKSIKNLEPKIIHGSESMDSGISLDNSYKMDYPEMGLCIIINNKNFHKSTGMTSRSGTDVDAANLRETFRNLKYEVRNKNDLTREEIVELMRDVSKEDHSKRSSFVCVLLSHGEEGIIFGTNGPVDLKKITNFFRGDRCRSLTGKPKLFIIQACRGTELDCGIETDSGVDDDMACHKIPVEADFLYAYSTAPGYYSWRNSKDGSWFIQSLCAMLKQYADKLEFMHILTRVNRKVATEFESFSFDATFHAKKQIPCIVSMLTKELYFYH

[4] = biological target: T5, Sentrin-specific protease 6 (Homo sapiens, UniProt Q9GZR1);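 note: Luminescence-based dose-response confirmatory assay of SENP6 inhibition, following up an ultra-high-throughput screen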
T5 sequence (Q9GZR1 whole entry): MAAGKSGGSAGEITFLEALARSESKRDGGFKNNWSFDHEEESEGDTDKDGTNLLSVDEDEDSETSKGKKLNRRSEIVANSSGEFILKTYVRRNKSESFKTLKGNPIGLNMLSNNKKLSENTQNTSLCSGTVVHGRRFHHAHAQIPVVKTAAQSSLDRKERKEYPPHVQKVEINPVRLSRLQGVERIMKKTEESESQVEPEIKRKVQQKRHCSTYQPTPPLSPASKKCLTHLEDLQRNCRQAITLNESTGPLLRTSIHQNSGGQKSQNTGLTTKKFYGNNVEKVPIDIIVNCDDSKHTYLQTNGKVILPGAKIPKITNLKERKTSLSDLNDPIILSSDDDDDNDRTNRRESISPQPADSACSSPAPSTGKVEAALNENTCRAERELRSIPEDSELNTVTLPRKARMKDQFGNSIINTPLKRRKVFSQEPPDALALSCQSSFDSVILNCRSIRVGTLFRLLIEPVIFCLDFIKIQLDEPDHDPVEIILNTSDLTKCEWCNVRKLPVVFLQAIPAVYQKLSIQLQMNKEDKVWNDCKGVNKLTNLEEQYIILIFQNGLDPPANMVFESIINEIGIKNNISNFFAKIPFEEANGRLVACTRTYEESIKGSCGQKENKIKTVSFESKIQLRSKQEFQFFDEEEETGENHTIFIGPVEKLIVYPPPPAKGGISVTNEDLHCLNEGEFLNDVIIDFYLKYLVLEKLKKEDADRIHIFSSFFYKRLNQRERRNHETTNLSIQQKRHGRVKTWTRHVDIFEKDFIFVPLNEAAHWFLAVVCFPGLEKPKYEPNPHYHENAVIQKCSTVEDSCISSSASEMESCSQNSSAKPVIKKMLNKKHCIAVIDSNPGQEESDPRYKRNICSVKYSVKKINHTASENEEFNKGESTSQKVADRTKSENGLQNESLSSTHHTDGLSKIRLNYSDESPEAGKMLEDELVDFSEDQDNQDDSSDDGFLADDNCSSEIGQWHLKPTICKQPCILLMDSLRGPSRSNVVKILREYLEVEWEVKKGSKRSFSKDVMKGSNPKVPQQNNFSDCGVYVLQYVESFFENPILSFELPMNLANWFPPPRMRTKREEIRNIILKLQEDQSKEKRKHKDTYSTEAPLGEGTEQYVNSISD

[5] = Luminescence Cell-Based Dose Response HTS to Identify Activators of Luciferase Translation or Activity in H4 […] Cells. [Related pubchem assays: 1829 (Project Summary), 1814 (Primary HTS)]
H4 = experiment: Luminescence Cell-Based Dose Response HTS to Identify Activators of 5'UTR Stem-Loop Driven Prion Protein mRNA Translation in H4 Neuroglioblastoma Cells. [Related pubchem assays: 1829 (Project Summary), 1814 (Primary HTS)]; conditions: Homo sapiens
INS1 = experiment: INS-1E survival protection against cytokine death – cell-based, luminescence, retest, dose response (AID 449756); conditions: Rattus norvegicus;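 note: cell death triggered by IL-1 beta plus TNF-alpha plus IFN-gamma mixture; protective hits raise ATP signal compared with cytokine alone wells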
[6] = biological target: Induced myeloid leukemia cell differentiation protein Mcl-1 (Homo sapiens, UniProt Q07820)
[7] = biological target: T6, Small ubiquitin-related modifier 1 (Homo sapiens, UniProt P63165); experiment: SUMO1 protein interaction blockers, potency – biochemical, fluorescence polarization, uHTS hits, dose response (AID 624382); conditions: read-out: IC50_Mean
[8] = biological target: T6, Small ubiquitin-related modifier 1; experiment: SUMO1 protein-protein binding blockers, potency – biochemical, FRET, dose response (AID 624383); conditions: read-out: IC50_Mean
Fatty acid synthase = Fatty acid synthase (Homo sapiens, UniProt P49327); experiment: inhibition of human FAS-TE enzyme activity – biochemical, kinetic fluorescence intensity, dose response (AID 624326);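 note: rate of fluorescence rise from hydrolysis of a fluorogenic O-methyl fluorescein ester substrate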
Fatty acid synthase, sequence (P49327 whole entry): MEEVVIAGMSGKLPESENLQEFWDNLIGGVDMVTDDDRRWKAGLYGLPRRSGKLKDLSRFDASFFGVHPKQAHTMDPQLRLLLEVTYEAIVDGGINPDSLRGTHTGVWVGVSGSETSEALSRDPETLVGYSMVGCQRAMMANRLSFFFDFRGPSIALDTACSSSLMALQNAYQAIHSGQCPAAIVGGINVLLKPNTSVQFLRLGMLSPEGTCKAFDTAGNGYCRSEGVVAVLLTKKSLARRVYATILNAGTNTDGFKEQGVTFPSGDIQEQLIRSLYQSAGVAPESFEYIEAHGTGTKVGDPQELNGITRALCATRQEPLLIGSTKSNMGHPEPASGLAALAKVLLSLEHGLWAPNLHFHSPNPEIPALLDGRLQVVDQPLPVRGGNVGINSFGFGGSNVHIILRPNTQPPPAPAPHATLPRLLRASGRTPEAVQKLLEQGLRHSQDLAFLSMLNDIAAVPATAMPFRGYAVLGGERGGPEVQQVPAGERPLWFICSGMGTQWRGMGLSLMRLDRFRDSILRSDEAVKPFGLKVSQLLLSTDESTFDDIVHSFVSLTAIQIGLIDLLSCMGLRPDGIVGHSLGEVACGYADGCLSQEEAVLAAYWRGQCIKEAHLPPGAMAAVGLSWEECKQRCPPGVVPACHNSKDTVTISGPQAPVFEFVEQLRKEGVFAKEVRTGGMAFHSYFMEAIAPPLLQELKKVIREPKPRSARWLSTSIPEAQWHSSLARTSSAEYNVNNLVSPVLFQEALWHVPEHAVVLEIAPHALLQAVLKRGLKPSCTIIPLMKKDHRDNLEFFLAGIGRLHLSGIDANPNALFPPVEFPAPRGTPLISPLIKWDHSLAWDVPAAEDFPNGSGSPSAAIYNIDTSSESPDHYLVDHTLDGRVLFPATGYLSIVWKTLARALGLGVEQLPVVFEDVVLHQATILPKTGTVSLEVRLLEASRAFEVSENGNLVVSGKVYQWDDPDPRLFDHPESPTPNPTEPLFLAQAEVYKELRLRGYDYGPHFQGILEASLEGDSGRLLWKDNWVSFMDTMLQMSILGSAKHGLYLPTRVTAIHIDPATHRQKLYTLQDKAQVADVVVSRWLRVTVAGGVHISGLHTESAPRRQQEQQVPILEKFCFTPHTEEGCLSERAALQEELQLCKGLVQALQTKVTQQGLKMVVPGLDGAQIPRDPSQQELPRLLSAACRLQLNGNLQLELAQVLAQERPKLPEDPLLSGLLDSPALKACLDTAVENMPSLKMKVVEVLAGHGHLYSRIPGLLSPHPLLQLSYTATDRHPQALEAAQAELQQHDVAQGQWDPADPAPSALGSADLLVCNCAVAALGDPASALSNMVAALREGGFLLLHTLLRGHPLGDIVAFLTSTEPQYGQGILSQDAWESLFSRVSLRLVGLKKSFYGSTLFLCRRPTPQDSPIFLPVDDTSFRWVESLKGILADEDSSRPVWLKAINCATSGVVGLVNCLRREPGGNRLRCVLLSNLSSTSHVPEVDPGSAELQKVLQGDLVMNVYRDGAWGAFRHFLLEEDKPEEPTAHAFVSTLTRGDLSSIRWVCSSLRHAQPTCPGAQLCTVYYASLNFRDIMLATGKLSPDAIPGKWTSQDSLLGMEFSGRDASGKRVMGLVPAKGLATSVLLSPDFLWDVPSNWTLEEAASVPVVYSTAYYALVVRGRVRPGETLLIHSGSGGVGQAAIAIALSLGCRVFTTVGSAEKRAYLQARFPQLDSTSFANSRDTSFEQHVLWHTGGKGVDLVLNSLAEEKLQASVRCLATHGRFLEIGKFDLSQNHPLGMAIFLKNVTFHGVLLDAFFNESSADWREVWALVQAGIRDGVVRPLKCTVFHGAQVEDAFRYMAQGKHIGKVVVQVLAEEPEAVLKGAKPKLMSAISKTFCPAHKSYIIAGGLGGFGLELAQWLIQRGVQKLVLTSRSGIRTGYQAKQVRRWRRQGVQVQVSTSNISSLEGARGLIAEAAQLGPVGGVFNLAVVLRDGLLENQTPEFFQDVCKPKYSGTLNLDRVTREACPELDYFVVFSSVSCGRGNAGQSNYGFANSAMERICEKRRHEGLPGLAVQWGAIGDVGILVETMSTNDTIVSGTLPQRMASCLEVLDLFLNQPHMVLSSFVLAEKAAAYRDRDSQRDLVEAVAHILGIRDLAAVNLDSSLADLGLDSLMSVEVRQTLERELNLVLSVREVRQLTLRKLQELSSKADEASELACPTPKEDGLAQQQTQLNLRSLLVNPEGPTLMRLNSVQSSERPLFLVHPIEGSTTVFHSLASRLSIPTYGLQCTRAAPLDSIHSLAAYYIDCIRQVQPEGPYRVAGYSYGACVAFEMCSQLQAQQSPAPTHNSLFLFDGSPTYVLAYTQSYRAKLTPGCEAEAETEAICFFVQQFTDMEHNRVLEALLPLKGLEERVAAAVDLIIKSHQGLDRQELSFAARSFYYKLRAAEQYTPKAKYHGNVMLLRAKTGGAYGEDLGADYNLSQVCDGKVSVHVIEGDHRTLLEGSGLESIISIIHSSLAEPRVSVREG

T6 sequence (P63165 whole entry): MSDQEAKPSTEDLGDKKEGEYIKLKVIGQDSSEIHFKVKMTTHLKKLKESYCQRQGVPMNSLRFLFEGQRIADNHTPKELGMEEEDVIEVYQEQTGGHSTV
Induced myeloid leukemia cell differentiation protein Mcl-1, sequence (Q07820 whole entry): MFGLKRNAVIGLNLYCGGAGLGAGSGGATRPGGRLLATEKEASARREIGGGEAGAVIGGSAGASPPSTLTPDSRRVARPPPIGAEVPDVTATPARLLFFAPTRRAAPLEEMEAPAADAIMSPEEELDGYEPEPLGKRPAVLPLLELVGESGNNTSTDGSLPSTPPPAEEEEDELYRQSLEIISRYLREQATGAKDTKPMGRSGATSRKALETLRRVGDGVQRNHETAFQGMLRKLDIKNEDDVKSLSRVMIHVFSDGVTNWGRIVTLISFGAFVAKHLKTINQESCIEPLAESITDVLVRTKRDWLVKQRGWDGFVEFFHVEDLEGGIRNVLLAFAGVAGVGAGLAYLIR

With `O=C(Nc1nccs1)c1ccc(-c2ccccc2Cl)o1` the IC50 (Protein skinhead-1) was > 100 µM (inactive), the EC50 [1] was 27 µM (active) and the IC50 [2] was 4.57 µM (active). The IC50 [3] was 25.1 µM (active), the IC50 (Caspase-3) was 22 µM (active) and the IC50 [4] was > 100 µM (inactive). The EC50 [5] was 106 µM (active) and the EC50 (H4) was 23.5 µM (inconclusive).
For `O=C(Nc1ccc(Nc2ccncc2)cc1)c1ccc(Nc2ccnc3ccc([N+](=O)[O-])cc23)cc1[N+](=O)[O-]`, the AC50 (INS1) was 10.5 µM (active), the IC50 [6] was 2.46 µM (active) and the IC50 [7] was > 66.6 µM (inactive). The IC50 [8] was 10.3 µM (active).
With `O=C(CCCc1ccccc1)c1ccccc1` the IC50 [2] was 7.31 µM (active), the IC50 [3] was 54.9 µM (active) and the IC50 (Caspase-3) was 13.5 µM (active). The IC50 [4] was 20.4 µM (active).
In the case of `O=C(OCc1ccc([N+](=O)[O-])cc1)c1cc([N+](=O)[O-])ccc1N1CCOCC1`, the IC50 (Fatty acid synthase) is reported as 2.73 µM (active).
